According to patent US11931389B2, “Tablet of sporoderm-removed ganoderma lucidum spore and preparation method thereof” (Zhejiang Shouxiangu Pharmaceutical Company, Ltd., priority 2017, dated 2024):
Where a name gives a salt, the structure may show the parent alone.

Experiments:
Type in all cases: in vivo
[1] = system: human lung adenocarcinoma (A549) transplanted tumor; experiment: Zebrafish human lung adenocarcinoma (A549) transplanted tumor model; settings: A549, 50 μM, 2 days
Text: Human lung adenocarcinoma (A549) cells were labeled with a red fluorescent dye (CM-Dil), and transplanted into zebrafish yolk sacs by microinjection, with about 200 cells being transplanted per zebrafish, so as to establish a zebrafish human lung adenocarcinoma transplanted tumor model.
(§1) Human lung adenocarcinoma (A549) cells were labeled with CM-Dil, and transplanted into 2 dpf wild type AB strain zebrafish yolk sacs by microinjection, with about 200 cells being transplanted per zebrafish, so as to establish a zebrafish human lung adenocarcinoma (A549) transplanted model; and the zebrafishes injected with the A549 cells were fed at 35° C. until 3 dpf.
(§2) Zebrafishes with better consistence in transplanted tumor cells were picked out under a microscope, randomly assigned to a 6-well plate, and were given in a water-dissolving administration manner respectively with the samples at concentrations respectively of 1, 3 and 9 μg/mL and the positive control drug cis-platinum at a concentration of 50 μM; and meanwhile a model control group was set, where there were 30 zebrafishes per well (concentration group), and the volume of each well was 5 mL. […] The inhibitory effect of the sample No. 3 on the zebrafish lung adenocarcinoma (A549) transplanted tumor was evaluated with the fluorescence intensities, and the tumor inhibition effect was calculated using the following equation. […]

[2] = system: human gastric cancer (SGC-7901) transplanted tumor; experiment: Zebrafish human gastric cancer (SGC-7901) transplanted tumor model; settings: SGC-7901, 50 μM, 2 days
Text: Human gastric cancer (SGC-7901) cells were labeled with a red fluorescent dye (CM-Dil), and transplanted into zebrafish yolk sacs by microinjection, with about 200 cells being transplanted per zebrafish, so as to establish the zebrafish human gastric cancer transplanted tumor model.
as §1, with “gastric cancer (SGC-7901)” for “lung adenocarcinoma (A549)”, “cells” for “cells being transplanted”, “SGC-7901” for “A549”
Zebrafishes with better consistence in transplanted tumor cells were picked out under a microscope, randomly assigned to a 6-well plate, and were given in a water-dissolving administration manner respectively with the samples at concentrations respectively of 28, 83 and 250 μg/mL and the positive control drug cis-platinum at a concentration of 50 μM; and meanwhile a model control group was set, where there were 30 zebrafishes per well, and the volume of each well was 5 mL. […] The inhibitory effects of samples on the zebrafish gastric cancer (SGC-7901) transplanted tumor were respectively evaluated with the fluorescence intensities, and the tumor inhibition effect was calculated using the following equation. […]

[3] = system: human lymphatic cancer (Ramos) transplanted tumor; experiment: Zebrafish human lymphatic cancer (Ramos) transplanted tumor model; settings: Danio rerio, 48 h, 2 days, read-out: Inhibition Effect
Text: Human lymphatic cancer (Ramos) cells were labeled with a red fluorescent dye (CM-Dil), and transplanted into zebrafish yolk sacs by microinjection, with about 200 cells being transplanted per zebrafish, so as to establish a zebrafish human lymphatic cancer transplanted tumor model.
as §1, with “Human lymphatic cancer (Ramos)” for “Human lung adenocarcinoma (A549)”, “human lymphatic cancer” for “human lung adenocarcinoma (A549)”, “the human lymphatic cancer” for “the A549”
as §2, with “vincristine” for “cis-platinum”, “5” for “50”, “sample” for “sample No. 3”, “lymphatic cancer (Ramos)” for “lung adenocarcinoma (A549)”

Row | SMILES | Inhibition Effect [1] | Inhibition Effect [2] | inhibition at 5 µM [3]
1 | N.N.[Cl][Pt][Cl] [cis-platinum, Cis-platinum] | 29% | 37% | 
2 | CC[C@]1(O)C[C@H]2CN(CCc3c([nH]c4ccccc34)[C@@](C(=O)OC)(c3cc4c(cc3OC)N(C=O)[C@H]3[C@@](O)(C(=O)OC)[C@H](OC(C)=O)[C@]5(CC)C=CCN6CC[C@]43[C@@H]65)C2)C1 [vincristine, Vincristine sulfate] |  |  | 35%
